# Structures can show the parent of a compound that is named as a salt.
# What was measured:
# [1] = molecular target: T1, HCV genotype 1b (BK) NS3 modified enzyme with a R155K mutation (Hepatitis C virus genotype 1b, UniProt P26663, R1181K); assay: HCV NS3 protease time-resolved fluorescence (TRF) assay, genotype 1b R155K; type: biochemical; details: Ki 1b R155K
# T1 construct: HCV genotype 1b (BK) NS3 modified enzyme
# In short: (§1)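 IC50 values derive from 4-parameter fitting of TRF signal after a 6 h room-temperature cleavage of 25 nM peptide substrate by NS3/NS4A that had been pre-incubated 10 min with compound.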
# [2] = molecular target: HCV NS3 protease genotype 3a (3A-1) (Hepatitis C virus genotype 3a, UniProt Q81258); assay: HCV NS3 protease time-resolved fluorescence (TRF) assay, genotype 3a; type: biochemical; details: Ki 3a
# In short: as §1
# [3] = first of two values printed in the cell (not explained)
# [4] = second of two values printed in the cell (not explained)
Structure (SMILES),"Ki [1, 3] [nM]","Ki [1, 4] [nM]",Ki [2] [nM]
"C=C[C@@H]1CC1(NC(=O)[C@@H]1C[C@@H]2CN1C(=O)[C@H](C1CCOCC1)NC(=O)O[C@@H]1C[C@H]1CCCCCc1c(nc3ccccc3c1OC1CCN(C)CC1)O2)C(=O)NS(=O)(=O)C1(C)CC1 (stereo partly drawn) [Example 252, potassium {[(1R,2S)-2-ethenyl-1-({[(1aR,5S,8S,10R,22aR)-17-[(1-methylpiperidin-4-yl)oxy]-3,6-dioxo-5-(tetrahydro-2H-pyran-4-yl)-1,1a,3,4,5,6,9,10,18,19,20,21,22,22a-tetradecahydro-8H-7,10-methanocyclopropa[18,19][1,10,3,6]dioxadiazacyclononadecino[11,12-b]quinolin-8-yl]carbonyl}amino)cyclopropyl]carbonyl}[(1-methylcyclopropyl)sulfonyl]azanide]",0.009,0.022,0.088
"C=C[C@@H]1C[C@]1(NC(=O)[C@@H]1C[C@@H]2CN1C(=O)[C@H](C1CCCCC1)NC(=O)O[C@@H]1C[C@H]1CCCCCc1c(nc3ccccc3c1OC1CCOCC1)O2)C(=O)NS(=O)(=O)C1(C)CC1 [Example 253, (1aR,5S,8S,10R,22aR)-5-cyclohexyl-N-[(1R,2S)-2-ethenyl-1-{[(1-methylcyclopropyl)sulfonyl]carbamoyl}cyclopropyl]-3,6-dioxo-17-(tetrahydro-2H-pyran-4-yloxy)-1,1a,3,4,5,6,9,10,18,19,20,21,22,22a-tetradecahydro-8H-7,10-methanocyclopropa[18,19][1,10,3,6]dioxadiazacyclononadecino[11,12-b]quinoline-8-carboxamide]",0.026,0.265,11
"C=C[C@@H]1C[C@]1(NC(=O)[C@@H]1C[C@@H]2CN1C(=O)[C@H](C(C)(C)C)NC(=O)O[C@@H]1C[C@H]1CCCCCc1c(nc3ccccc3c1OC1C3COCC1CN(CC1CC1)C3)O2)C(=O)NS(=O)(=O)C1(C)CC1 (stereo partly drawn) [Example 256, 9-{[(1aR,5S,8S,10R,22aR)-5-tert-butyl-8-{[(1R,2S)-2-ethenyl-1-{[(1-methylcyclopropyl)sulfonyl]carbamoyl}cyclopropyl]carbamoyl}-3,6-dioxo-1,1a,3,4,5,6,9,10,18,19,20,21,22,22a-tetradecahydro-8H-7,10-methanocyclopropa[18,19][1,10,3,6]dioxadiazacyclononadecino[11,12-b]quinolin-17-yl]oxy}-7-(cyclopropylmethyl)-3-oxa-7-azoniabicyclo[3.3.1]nonane formate]",0.021,0.122,5.45
"C=C[C@@H]1CC1(NC(=O)[C@@H]1C[C@@H]2CN1C(=O)[C@H](C(C)(C)C)NC(=O)O[C@@H]1C[C@H]1CCCCCc1c(nc3ccccc3c1OC1C3COCC1CN(CCOC)C3)O2)C(=O)NS(=O)(=O)C1(C)CC1 (stereo partly drawn) [Example 257, 9-{[(1aR,5S,8S,10R,22aR)-5-tert-butyl-8-{[(1R,2S)-2-ethenyl-1-{[1-methylcyclopropyl)sulfonyl]carbamoyl}cyclopropyl]carbamoyl}-3,6-dioxo-1,1a,3,4,5,6,9,10,18,19,20,21,22,22a-tetradecahydro-8H-7,10-methanocyclopropa[18,19][1,10,3,6]dioxadiazacyclononadecino[11,12-b]quinolin-17-yl]oxy}-7-(2-methoxyethyl)-3-oxa-7-azoniabicyclo[3.3.1]nonane formate]",0.032,0.23,3.9
"C=C[C@@H]1C[C@]1(NC(=O)[C@@H]1C[C@@H]2CN1C(=O)[C@H](C(C)(C)C)NC(=O)O[C@@H]1C[C@H]1CCCCCc1c(nc3ccccc3c1OC1C3COCC1CN(CC)C3)O2)C(=O)NS(=O)(=O)C1(C)CC1 (stereo partly drawn) [Example 260, (1aR,5S,8S,10R,22aR)-5-tert-butyl-N-[(1R,2S)-2-ethenyl-1-{[(1-methylcyclopropyl)sulfonyl]carbamoyl}cyclopropyl]-17-[(7-ethyl-3-oxa-7-azabicyclo[3.3.1]non-9-yl)oxy]-3,6-dioxo-1,1a,3,4,5,6,9,10,18,19,20,21,22,22a-tetradecahydro-8H-7,10-methanocyclopropa[18,19][1,10,3,6]dioxadiazacyclononadecino[11,12-b]quinoline-8-carboxamide]",0.019,0.093,2.4
"C=C[C@@H]1C[C@]1(NC(=O)[C@@H]1C[C@@H]2CN1C(=O)[C@H](C(C)(C)C)NC(=O)O[C@@H]1C[C@H]1CCCCCc1c(nc3ccccc3c1OC1C3COCC1CN(CCOC)C3)O2)C(=O)NS(=O)(=O)C1(C)CC1 (stereo partly drawn) [Example 261, (1aR,5S,8S,10R,22aR)-5-tert-butyl-N-[(1R,2S)-2-ethenyl-1-{[(1-methylcyclopropyl)sulfonyl]carbamoyl}cyclopropyl]-17-{[7-(2-methoxyethyl)-3-oxa-7-azabicyclo[3.3.1]non-9-yl]oxy}-3,6-dioxo-1,1a,3,4,5,6,9,10,18,19,20,21,22,22a-tetradecahydro-8H-7,10-methanocyclopropa[18,19][1,10,3,6]dioxadiazacyclononadecino[11,12-b]quinoline-8-carboxamide]",0.026,0.155,3.45
"C=C[C@@H]1CC1(NC(=O)[C@@H]1C[C@@H]2CN1C(=O)[C@H](C1CCCCC1)NC(=O)O[C@@H]1C[C@H]1CCCCCc1c(nc3ccccc3c1OC1CCN(CCOC(F)(F)F)CC1)O2)C(=O)NS(=O)(=O)C1(C)CC1 (stereo partly drawn) [Example 262, potassium {[(1R,2S)-1-({[(1aR,5S,8S,10R,22aR)-5-cyclohexyl-3,6-dioxo-17-({1-[2-(trifluoromethoxy)ethyl]piperidin-4-yl}oxy)-1,1a,3,4,5,6,9,10,18,19,20,21,22,22a-tetradecahydro-8H-7,10-methanocyclopropa[18,19][1,10,3,6]dioxadiazacyclononadecino[11,12-b]quinolin-8-yl]carbonyl}amino)-2-ethenylcyclopropyl]carbonyl}[(1-methylcyclopropyl)sulfonyl]azanide]",0.018,0.12,1.2
"C=C[C@@H]1C[C@]1(NC(=O)[C@@H]1C[C@@H]2CN1C(=O)[C@H](C1(C)CCCCC1)NC(=O)O[C@@H]1C[C@H]1CCCCCc1c(nc3ccccc3c1OC1CC3CCC(C1)N3C)O2)C(=O)NS(=O)(=O)C1(C)CC1 (stereo partly drawn) [Example 263, (1aR,5S,8S,10R,22aR)—N-[(1R,2S)-2-ethenyl-1-{[(1-methylcyclopropyl)sulfonyl]carbamoyl}cyclopropyl]-17-[(8-methyl-8-azabicyclo[3.2.1]oct-3-yl)oxy]-5-(1-methylcyclohexyl)-3,6-dioxo-1,1a,3,4,5,6,9,10,18,19,20,21,22,22a-tetradecahydro-8H-7,10-methanocyclopropa[18,19][1,10,3,6]dioxadiazacyclononadecino[11,12-b]quinoline-8-carboxamide]",0.006,0.011,0.041
"C=C[C@@H]1C[C@]1(NC(=O)[C@@H]1C[C@@H]2CN1C(=O)[C@H](C1CCCCC1)NC(=O)O[C@@H]1C[C@H]1CCCCCc1c(nc3ccccc3c1OCCCN1CCN(C(=O)OC(C)(C)C)CC1)O2)C(=O)NS(=O)(=O)C1(C)CC1 [Example 264, tert-butyl 4-(3-{[(1aR,5S,8S,10R,22aR)-5-cyclohexyl-8-{[(1R,2S)-2-ethenyl-1-{[(1-methylcyclopropyl)sulfonyl]carbamoyl}cyclopropyl]carbamoyl}-3,6-dioxo-1,1a,3,4,5,6,9,10,18,19,20,21,22,22a-tetradecahydro-8H-7,10-methanocyclopropa[18,19][1,10,3,6]dioxadiazacyclononadecino[11,12-b]quinolin-17-yl]oxy}propyl)piperazine-1-carboxylate]",0.037,1.4,7.7
"C=C[C@@H]1CC1(NC(=O)[C@@H]1C[C@@H]2CN1C(=O)[C@H](C1CCCCC1)NC(=O)O[C@@H]1C[C@H]1CCCCCc1c(nc3ccccc3c1OCCCN1CCNCC1)O2)C(=O)NS(=O)(=O)C1(C)CC1 (stereo partly drawn) [Example 265, potassium ({(1R,2S)-1-[({(1aR,5S,8S,10R,22aR)-5-cyclohexyl-3,6-dioxo-17-[3-(piperazin-1-yl)propoxy]-1,1a,3,4,5,6,9,10,18,19,20,21,22,22a-tetradecahydro-8H-7,10-methanocyclopropa[18,19][1,10,3,6]dioxadiazacyclononadecino[11,12-b]quinolin-8-yl}carbonyl)amino]-2-ethenylcyclopropyl}carbonyl)[(1-methylcyclopropyl)sulfonyl]azanide]",0.016,0.11,1.15
"C=C[C@@H]1C[C@]1(NC(=O)[C@@H]1C[C@@H]2CN1C(=O)[C@H](C1CCCCC1)NC(=O)O[C@@H]1C[C@H]1CCCCCc1c(nc3ccccc3c1CN1CCN(C)CC1)O2)C(=O)NS(=O)(=O)C1(C)CC1 [Example 266, potassium ({(1R,2S)-1-[({(1aR,5S,8S,10R,22aR)-5-cyclohexyl-17-[(4-methylpiperazin-1-yl)methyl]-3,6-dioxo-1,1a,3,4,5,6,9,10,18,19,20,21,22,22a-tetradecahydro-8H-7,10-methanocyclopropa[18,19][1,10,3,6]dioxadiazacyclononadecino[11,12-b]quinolin-8-yl}carbonyl)amino]-2-ethenylcyclopropyl}carbonyl)[(1-methylcyclopropyl)sulfonyl]azanide]",0.02,0.044,7.5

# From patent publication US9328138B2 (priority 2011, dated 2016)
